Data reported in US10898548B2, “Modulators of protein tyrosine phosphatase and uses thereof” (LEUVAS THERAPEUTICS, priority 2015, dated 2021).

How the values were obtained:
U87 GBM cells [1] = assay: VYBRANT apoptosis, U87 GBM cells; type: cell-based; conditions: 0.5 μM
U87 GBM cells [2] = assay: MTT survival assay, U87 GBM cells; type: cell-based
Experimental: (§1) The DBTRG-O5MG (Denver Brain Tumor Research Group 05) cell line was established from tissue from a patient with glioblastoma multiforme who had been treated with local brain irradiation and multi drug chemotherapy (Kruse C A, et al. 1992 In vitro Cell Dev Biol, 28A(9-10):609-14). U87 is a commonly studied and thoroughly characterized grade IV glioma cell line derived from malignant glioma (Clark M J, et al, 2010 Plos Genet. 6(1):e1000832.). T98G is a glioblastoma multiforme cell line extracted from a person (Stein G H, 1979, J. Cell Physiol, 99(1):43-54). Proliferation and survival were assessed following TAT-ICD or control peptide (Table 29) or the P1-WD or control peptide treatment using the MTT assay as described above. Data are relative absorption; mean and standard deviation.

DBTRG GBM cells [3] = assay: MTT survival assay, DBTRG GBM cells; type: cell-based, human
Experimental: as §1

bEnd3 endothelial cells = assay: MTT assay, bEnd3 endothelial cells; type: cell-based
[4] = test system: normal primary cortical murine neurons; assay: MTT assay, normal primary cortical neurons; type: cell-based, mouse
Experimental: (§2) Briefly, U251 GBM cells, normal primary cortical murine neurons and a mixed culture of murine microglia and astrocytes were treated for 24, 48 and 72 hours with no treatment (control), delivery peptide (P1 or TAT) or increasing concentrations of P1-WD or TAT-ICD. Cell viability and survival was measured using the MTT assay, a colorimetric assay for assessing cell metabolic activity set up under conditions where the absorption reflects the number of viable cells present (Table 21 and 22) and expressed as relative absorption at 570 nm. Early apoptosis was measured using VYBRANT DyeCycle Violet stain (Molecular Probes), a DNA-selective, cell membrane-permeant dye that can distinguish the compacted state of the nuclear chromatin in apoptotic cells as determined by flow cytometry and presented as the percent of cells that are apoptotic (Table 23 and 24). The actual number of cells following treatment with TAT-ICD or TAT alone (Table 25) was determined using flow cytometry compared to an input of 5,000 cells at time zero. To confirm apoptosis the TUNEL labeling assay, which detects DNA strand breaks in apoptotic cells by fluorescence microscopy, was also used to examine U251 cells treated with the PTPRG WD. Briefly, the assay used an optimized terminal transferase ([…]) to label 3′OH ends in genomic DNA with TMR-dUTP, thus allowing the measurement and quantification of cell death by apoptosis. U251 cells were pretreated for 1, 3 and 6 hours with 50 μM P1-WD. Then cells were fixed and permeabilized, incubated with TUNEL reaction mixture for 1 h at RT, and then stained with DAPI (for nuclei detection) and with Alexa670-Phalloidin (to detect actin in cell membranes). After the staining steps, cells were visualized with a confocal microscope.
In striking contrast, treatment of normal primary cortical neurons isolated from mouse pups treated with TAT alone or TAT-ICD for 24-72 hours (Table 26) are mean and sd of absorption using the MTT assay as described above.

U251 GBM cells = assay: VYBRANT DyeCycle Violet early apoptosis, U251 GBM cells; type: cell-based; conditions: TAT 50 uM
Experimental: as §2, with “Cell” for “Briefly, U251 GBM cells, normal primary cortical murine neurons and a mixed culture of murine microglia and astrocytes were treated for 24, 48 and 72 hours with no treatment (control), delivery peptide (P1 or TAT) or increasing concentrations of P1-WD or TAT-ICD. Cell”

T98G GBM cells = assay: MTT survival assay, T98G GBM cells; type: cell-based, human; conditions: TAT 500[…]μM
Experimental: as §1

DBTRG GBM cells [5] = assay: VYBRANT early apoptosis, DBTRG GBM cells; type: cell-based, human; conditions: 0.5 μM
U251 cells = assay: TUNEL labeling assay, U251 cells; type: cell-based; conditions: 50 μM P1-WD
Experimental: as §2
This finding was validated using the TUNEL in situ apoptosis cell death detection staining.

TAT (GRKKRRQRRRPPQ; listed as Homo sapiens) [reference compound]
percent of apoptotic cells (U87 GBM cells [1]; 1 hour, Control 10): 20%
percent of apoptotic cells (U87 GBM cells [1]; 3 hours, Control 3): 10%
percent of apoptotic cells (U87 GBM cells [1]; 6 hours, Control 14): 20%
MTT relative absorption (U87 GBM cells [2]; 0.1 μM, 24 hours, CTRL 1200): 1200
MTT relative absorption (U87 GBM cells [2]; 0.1 μM, 48 hours, CTRL 1200): 1018
MTT relative absorption (U87 GBM cells [2]; 0.1 μM, 72 hours, CTRL 1336): 1343
MTT relative absorption (U87 GBM cells [2]; 0.25 μM, 24 hours, CTRL 1200): 1195
MTT relative absorption (U87 GBM cells [2]; 0.25 μM, 48 hours, CTRL 1200): 950
MTT relative absorption (U87 GBM cells [2]; 0.25 μM, 72 hours, CTRL 1336): 1200
MTT relative absorption (U87 GBM cells [2]; 0.5 μM, 24 hours, CTRL 1200): 1160
MTT relative absorption (U87 GBM cells [2]; 0.5 μM, 48 hours, CTRL 1200): 900
MTT relative absorption (U87 GBM cells [2]; 0.5 μM, 72 hours, CTRL 1336): 1235
MTT relative absorption (DBTRG GBM cells [3]; 0.3 μM, 24 hours, Control 941): 711
MTT relative absorption (DBTRG GBM cells [3]; 0.3 μM, 48 hours, Control 1274): 1031
MTT relative absorption (DBTRG GBM cells [3]; 0.3 μM, 72 hours, Control 1667): 1583
MTT relative absorption (DBTRG GBM cells [3]; 0.5 μM, 24 hours, Control 941): 826
MTT relative absorption (DBTRG GBM cells [3]; 0.5 μM, 48 hours, Control 1274): 1061
MTT relative absorption (DBTRG GBM cells [3]; 0.5 μM, 72 hours, Control 1667): 1591
MTT relative absorption (DBTRG GBM cells [3]; 1.0 μM, 24 hours, Control 941): 792
MTT relative absorption (DBTRG GBM cells [3]; 1.0 μM, 48 hours, Control 1274): 1005
MTT relative absorption (DBTRG GBM cells [3]; 1.0 μM, 72 hours, Control 1667): 1275
mean absorbance in the MTT assay (bEnd3 endothelial cells; 0.1 uM, 24 hours, CTRL 352): 354
mean absorbance in the MTT assay (bEnd3 endothelial cells; 0.1 uM, 48 hours, CTRL 523): 503
mean absorbance in the MTT assay (bEnd3 endothelial cells; 0.25 uM, 24 hours, CTRL 352): 338
mean absorbance in the MTT assay (bEnd3 endothelial cells; 0.25 uM, 48 hours, CTRL 523): 540
mean absorbance in the MTT assay (bEnd3 endothelial cells; 0.5 uM, 24 hours, CTRL 352): 328
mean absorbance in the MTT assay (bEnd3 endothelial cells; 0.5 uM, 48 hours, CTRL 523): 528
absorbance in the MTT assay ([4]; 0.1 uM, 24 hours, Control 1116): 1150
absorbance in the MTT assay ([4]; 0.1 uM, 48 hours, Control 1022): 1151
absorbance in the MTT assay ([4]; 0.1 uM, 72 hours, Control 994): 1151
absorbance in the MTT assay ([4]; 0.25 uM, 24 hours, Control 1116): 908
absorbance in the MTT assay ([4]; 0.25 uM, 48 hours, Control 1022): 955
absorbance in the MTT assay ([4]; 0.25 uM, 72 hours, Control 994): 957
absorbance in the MTT assay ([4]; 0.5 uM, 24 hours, Control 1116): 1184
absorbance in the MTT assay ([4]; 0.5 uM, 48 hours, Control 1022): 1148
absorbance in the MTT assay ([4]; 0.5 uM, 72 hours, Control 994): 1224
percent of apoptotic cells (early apoptosis) (U251 GBM cells; 6 hr, CTRL 4.6): 10.0%
percent of apoptotic cells (early apoptosis) (U251 GBM cells; 9 hr, CTRL 6.0): 11.0%
percent of apoptotic cells (early apoptosis) (U251 GBM cells; 24 hr, CTRL 7.0): 8.0%
absorbance in the MTT assay (T98G GBM cells; 24 hours, CTRL 971): 954
absorbance in the MTT assay (T98G GBM cells; 48 hours, CTRL 1305): 1237
absorbance in the MTT assay (T98G GBM cells; 72 hours, CTRL 1481): 1205
percent of apoptotic cells by flow cytometry (DBTRG GBM cells [5]; 1 h, Control 14): 10%
percent of apoptotic cells by flow cytometry (DBTRG GBM cells [5]; 3 h, Control 16): 10%
percent of apoptotic cells by flow cytometry (DBTRG GBM cells [5]; 6 h, Control 33): 7%
DNA fragmentation, TUNEL staining (U251 cells): did not show fragmented DNA or cell loss
